Drawing on patent US11981658B2, “Substituted aminopyridine compounds as EGFR inhibitors” (YUHAN CORPORATION, priority 2021, dated 2024), this text covers IC50 for eleven compounds.

Like-named read-outs stand apart in the source and are kept apart here.

Assay [1] concerns the target EGFR L858R/T790M/C797S (Homo sapiens, UniProt P00533, C797S/L858R/T790M). In words: Biochemical EGFR kinase inhibition assay (Lance Ultra TR-FRET), triple mutant L858R/T790M/C797S. Put shortly: (§1)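 Enzyme reactions lasted 1 hour at room temperature with test compounds between 0.003 and 10 μM, followed by 10 mM EDTA quench.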
(In TR-FRET formats the signal depends on donor and acceptor labels being close together.)

Assay [2] concerns the target EGFR wildtype (WT) (Homo sapiens, UniProt P00533). Kind of assay: Biochemical EGFR kinase inhibition assay (Lance Ultra TR-FRET), wildtype. In short, it runs like this:
as §1

Assay [3] has as its target EGFR Del19/T790M/C797S (Homo sapiens, UniProt P00533, C797S/DEL746-750/T790M). Kind of assay: Biochemical EGFR kinase inhibition assay (Lance Ultra TR-FRET), triple mutant del19/T790M/C797S. In short, it runs like this:
as §1

Assay [4] concerns the target EGFR Del19/C797S (Homo sapiens, UniProt P00533, C797S/DEL746-750). In words: Biochemical EGFR kinase inhibition assay (Lance Ultra TR-FRET), double mutant del19/C797S. Put shortly:
as §1

Assay [5] has as its target EGFR L858R/C797S (Homo sapiens, UniProt P00533, C797S/L858R). Kind of assay: Biochemical EGFR kinase inhibition assay (Lance Ultra TR-FRET), double mutant L858R/C797S. In short, it runs like this:
as §1

The mark [6] stands for this setting: IC50 L858R/T790M/C797S (nM), 100 μM ATP.
[7] abbreviates: IC50 Del19/T790M/C797S (nM), 100 μM ATP.
[8] abbreviates: IC50 Del19/C797S (nM), 100 μM ATP.
Setting [9] is: IC50 L858R/C797S (nM), 100 μM ATP.
The mark [10] stands for this setting: Km ATP, read-out: IC50 L858R/T790M/C797S (nM), Km ATP.
Setting [11] is: Km ATP, read-out: IC50 WT (nM), Km ATP.
[12] abbreviates: Km ATP, read-out: IC50 Del19/T790M/C797S (nM), Km ATP.
Where [13] appears, read: Km ATP, read-out: IC50 Del19/C797S (nM), Km ATP.
Setting [14] is: Km ATP, read-out: IC50 L858R/C797S (nM), Km ATP.
[15] abbreviates: ATP at Km, read-out: IC50 L858R/T790M/C797S (nM), Km ATP.
The mark [16] stands for this setting: ATP at Km, read-out: IC50 WT (nM), Km ATP.
The mark [17] stands for this setting: ATP at Km, read-out: IC50 Del19/T790M/C797S (nM), Km ATP.
Where [18] appears, read: ATP at Km, read-out: IC50 Del19/C797S (nM), Km ATP.
The mark [19] stands for this setting: ATP at Km, read-out: IC50 L858R/C797S (nM), Km ATP.

Chain of EGFR L858R/T790M/C797S (P00533 25-1210 T790M/C797S/L858R): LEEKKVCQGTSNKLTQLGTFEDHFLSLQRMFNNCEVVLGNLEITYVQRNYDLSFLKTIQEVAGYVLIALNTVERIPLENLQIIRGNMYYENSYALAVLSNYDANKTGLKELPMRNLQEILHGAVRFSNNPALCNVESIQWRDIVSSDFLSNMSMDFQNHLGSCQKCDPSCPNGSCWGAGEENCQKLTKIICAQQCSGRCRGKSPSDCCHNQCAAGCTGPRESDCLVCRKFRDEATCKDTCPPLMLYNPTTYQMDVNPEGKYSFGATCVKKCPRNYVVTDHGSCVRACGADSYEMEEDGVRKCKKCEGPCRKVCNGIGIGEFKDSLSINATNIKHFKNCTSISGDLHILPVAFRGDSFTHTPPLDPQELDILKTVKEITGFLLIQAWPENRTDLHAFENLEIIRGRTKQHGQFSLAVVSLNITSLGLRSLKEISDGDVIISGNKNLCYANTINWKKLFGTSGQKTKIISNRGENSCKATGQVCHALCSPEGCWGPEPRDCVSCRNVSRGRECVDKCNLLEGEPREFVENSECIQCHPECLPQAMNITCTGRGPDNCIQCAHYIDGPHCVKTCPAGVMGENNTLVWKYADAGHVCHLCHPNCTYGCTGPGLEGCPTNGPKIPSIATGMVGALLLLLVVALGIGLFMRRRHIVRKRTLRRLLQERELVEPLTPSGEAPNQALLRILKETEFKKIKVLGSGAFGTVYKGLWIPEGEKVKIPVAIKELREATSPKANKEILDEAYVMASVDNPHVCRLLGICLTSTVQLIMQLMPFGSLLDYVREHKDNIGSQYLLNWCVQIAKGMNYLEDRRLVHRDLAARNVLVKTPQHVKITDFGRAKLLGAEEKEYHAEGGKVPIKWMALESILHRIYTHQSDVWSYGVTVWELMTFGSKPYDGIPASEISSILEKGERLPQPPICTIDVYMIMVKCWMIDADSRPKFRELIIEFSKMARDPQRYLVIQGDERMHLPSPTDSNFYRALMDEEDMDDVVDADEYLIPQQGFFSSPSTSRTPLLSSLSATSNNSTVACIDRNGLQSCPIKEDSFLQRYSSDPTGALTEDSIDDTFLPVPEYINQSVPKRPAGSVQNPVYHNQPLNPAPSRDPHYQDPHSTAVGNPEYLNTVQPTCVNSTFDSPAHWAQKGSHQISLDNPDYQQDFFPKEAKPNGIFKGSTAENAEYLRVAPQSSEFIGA
Chain of EGFR Del19/C797S (P00533 with tags, fused parts or gaps DEL746-750/C797S): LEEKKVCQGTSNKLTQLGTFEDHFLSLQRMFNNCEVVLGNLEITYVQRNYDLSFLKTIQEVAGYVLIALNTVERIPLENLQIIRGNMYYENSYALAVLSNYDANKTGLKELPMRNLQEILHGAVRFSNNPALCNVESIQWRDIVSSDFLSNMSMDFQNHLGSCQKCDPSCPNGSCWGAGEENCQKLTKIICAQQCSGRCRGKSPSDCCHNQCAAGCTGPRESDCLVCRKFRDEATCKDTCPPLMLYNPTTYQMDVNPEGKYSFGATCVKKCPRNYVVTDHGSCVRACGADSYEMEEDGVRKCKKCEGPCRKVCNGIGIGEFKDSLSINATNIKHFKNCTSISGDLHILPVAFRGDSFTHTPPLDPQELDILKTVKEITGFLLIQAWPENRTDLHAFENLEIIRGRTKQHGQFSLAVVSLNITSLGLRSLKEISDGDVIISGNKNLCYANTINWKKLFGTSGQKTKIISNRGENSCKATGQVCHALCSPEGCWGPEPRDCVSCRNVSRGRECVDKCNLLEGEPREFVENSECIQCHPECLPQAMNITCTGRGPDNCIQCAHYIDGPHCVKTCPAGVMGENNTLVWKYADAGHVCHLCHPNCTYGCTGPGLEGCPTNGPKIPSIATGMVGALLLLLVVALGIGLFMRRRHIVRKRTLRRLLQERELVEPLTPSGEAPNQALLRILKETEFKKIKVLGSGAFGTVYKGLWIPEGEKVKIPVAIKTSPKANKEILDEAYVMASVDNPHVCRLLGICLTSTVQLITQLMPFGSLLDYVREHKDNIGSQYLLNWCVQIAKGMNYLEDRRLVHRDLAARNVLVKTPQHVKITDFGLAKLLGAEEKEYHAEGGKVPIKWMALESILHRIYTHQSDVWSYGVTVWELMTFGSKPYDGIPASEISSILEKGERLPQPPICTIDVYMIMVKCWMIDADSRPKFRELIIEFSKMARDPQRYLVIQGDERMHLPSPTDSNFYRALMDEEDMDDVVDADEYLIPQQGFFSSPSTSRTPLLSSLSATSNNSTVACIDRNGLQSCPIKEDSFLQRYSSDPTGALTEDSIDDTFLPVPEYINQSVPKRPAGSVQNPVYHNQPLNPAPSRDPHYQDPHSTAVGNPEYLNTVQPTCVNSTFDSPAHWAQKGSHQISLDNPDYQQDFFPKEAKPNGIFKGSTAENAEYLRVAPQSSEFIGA
Chain of EGFR wildtype (WT) (P00533 25-1210): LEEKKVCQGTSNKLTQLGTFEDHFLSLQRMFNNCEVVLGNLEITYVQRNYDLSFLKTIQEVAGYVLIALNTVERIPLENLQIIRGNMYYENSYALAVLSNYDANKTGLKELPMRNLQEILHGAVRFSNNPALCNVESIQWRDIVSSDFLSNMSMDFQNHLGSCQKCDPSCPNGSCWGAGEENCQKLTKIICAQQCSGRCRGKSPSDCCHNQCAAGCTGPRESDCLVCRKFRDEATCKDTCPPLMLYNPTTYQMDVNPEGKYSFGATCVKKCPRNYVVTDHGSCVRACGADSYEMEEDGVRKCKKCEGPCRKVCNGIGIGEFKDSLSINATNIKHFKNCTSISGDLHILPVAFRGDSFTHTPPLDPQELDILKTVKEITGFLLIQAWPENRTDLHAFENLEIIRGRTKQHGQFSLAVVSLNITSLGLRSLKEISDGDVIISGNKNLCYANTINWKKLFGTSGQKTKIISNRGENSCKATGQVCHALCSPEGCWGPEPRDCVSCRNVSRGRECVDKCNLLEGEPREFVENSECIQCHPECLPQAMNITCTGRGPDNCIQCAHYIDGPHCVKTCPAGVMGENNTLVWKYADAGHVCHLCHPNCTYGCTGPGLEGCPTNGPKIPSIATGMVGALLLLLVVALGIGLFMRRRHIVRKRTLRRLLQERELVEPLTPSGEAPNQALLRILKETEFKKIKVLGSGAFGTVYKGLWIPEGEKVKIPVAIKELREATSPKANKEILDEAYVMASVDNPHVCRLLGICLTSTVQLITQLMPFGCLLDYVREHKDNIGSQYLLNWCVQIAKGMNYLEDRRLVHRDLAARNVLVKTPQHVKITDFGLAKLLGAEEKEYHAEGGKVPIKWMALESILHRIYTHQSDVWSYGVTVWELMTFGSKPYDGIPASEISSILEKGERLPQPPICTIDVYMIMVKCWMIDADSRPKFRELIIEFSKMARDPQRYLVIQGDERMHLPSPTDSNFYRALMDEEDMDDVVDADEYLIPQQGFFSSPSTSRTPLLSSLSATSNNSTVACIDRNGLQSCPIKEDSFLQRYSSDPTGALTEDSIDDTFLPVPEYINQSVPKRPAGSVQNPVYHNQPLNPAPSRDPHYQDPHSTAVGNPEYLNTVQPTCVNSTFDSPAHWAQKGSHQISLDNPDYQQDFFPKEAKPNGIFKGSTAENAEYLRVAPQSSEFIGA
Chain of EGFR Del19/T790M/C797S (P00533 with tags, fused parts or gaps DEL746-750/T790M/C797S): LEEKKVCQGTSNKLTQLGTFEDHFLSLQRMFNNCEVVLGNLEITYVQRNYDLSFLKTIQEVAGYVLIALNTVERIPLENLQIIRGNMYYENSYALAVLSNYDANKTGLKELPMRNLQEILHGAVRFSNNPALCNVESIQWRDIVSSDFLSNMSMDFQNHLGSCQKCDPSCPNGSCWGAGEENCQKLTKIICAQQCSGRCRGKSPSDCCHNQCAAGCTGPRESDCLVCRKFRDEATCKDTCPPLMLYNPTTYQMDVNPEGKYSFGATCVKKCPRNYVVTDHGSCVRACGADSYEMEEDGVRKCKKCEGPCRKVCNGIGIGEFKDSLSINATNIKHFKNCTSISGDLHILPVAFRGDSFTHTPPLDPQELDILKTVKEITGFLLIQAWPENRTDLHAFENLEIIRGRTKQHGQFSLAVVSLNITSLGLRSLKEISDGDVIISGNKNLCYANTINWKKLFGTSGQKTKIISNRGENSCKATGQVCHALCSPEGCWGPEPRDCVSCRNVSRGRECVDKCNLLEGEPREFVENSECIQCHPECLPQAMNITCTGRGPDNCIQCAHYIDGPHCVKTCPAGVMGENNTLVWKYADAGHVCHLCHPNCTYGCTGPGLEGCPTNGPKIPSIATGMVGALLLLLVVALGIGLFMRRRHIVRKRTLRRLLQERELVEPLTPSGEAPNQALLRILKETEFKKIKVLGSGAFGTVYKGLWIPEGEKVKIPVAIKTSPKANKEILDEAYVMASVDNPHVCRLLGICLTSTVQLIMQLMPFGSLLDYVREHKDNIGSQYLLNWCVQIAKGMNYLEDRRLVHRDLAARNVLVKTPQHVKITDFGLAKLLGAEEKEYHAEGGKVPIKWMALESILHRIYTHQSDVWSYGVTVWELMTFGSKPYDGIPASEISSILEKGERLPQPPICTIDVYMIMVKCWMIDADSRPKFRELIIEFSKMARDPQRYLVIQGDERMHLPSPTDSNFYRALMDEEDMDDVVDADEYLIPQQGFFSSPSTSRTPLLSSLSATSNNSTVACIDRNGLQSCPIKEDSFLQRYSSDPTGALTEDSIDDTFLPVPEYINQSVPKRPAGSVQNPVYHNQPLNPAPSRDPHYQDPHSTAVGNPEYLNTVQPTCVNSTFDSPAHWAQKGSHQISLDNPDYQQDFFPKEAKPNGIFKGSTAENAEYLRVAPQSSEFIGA

Take `CC1(C#Cc2cnc(Nc3ccnc(-c4cnn(S(=O)(=O)C5CC5)c4)n3)cc2NC[C@H]2CC[C@H](O)CC2)CC1` [Example 403, (1r,4r)-4-(((2-((2-(1-(Cyclopropylsulfonyl)-1H-pyrazol-4-yl)pyrimidin-4-yl)amino)-5-((1-methylcyclopropyl)ethynyl)pyridin-4-yl)amino)methyl)cyclohexan-1-ol]: the IC50 in assay [1] (setting [6]) was 50.3 nM; in assay [2] (IC50 WT (nM), 100 μM ATP), above 10000 nM; in assay [3] (setting [7]), 16.2 nM; in assay [4] (setting [8]), 140 nM; in assay [5] (setting [9]), 1920 nM.
For `O=S(=O)(C1CC1)n1cc(-c2nccc(Nc3cc(N4CCC(F)(CO)CC4)c(C#Cc4cnn(CC(F)(F)F)c4)cn3)n2)cn1` [Example 342, (1-(2-((2-(1-(Cyclopropylsulfonyl)-1H-pyrazol-4-yl)pyrimidin-4-yl)amino)-5-((1-(2,2,2-trifluoroethyl)-1H-pyrazol-4-yl)ethynyl)pyridin-4-yl)-4-fluoropiperidin-4-yl)methanol], the IC50 was 0.8 nM in assay [1] (setting [6]); 0.2 nM in assay [1] (setting [10]); above 10000 nM in assay [2] (IC50 WT (nM), 100 μM ATP); 11 nM in assay [2] (setting [11]); 0.9 nM in assay [3] (setting [7]); 0.8 nM in assay [3] (setting [12]). The IC50 in assay [4] (setting [8]) stood at 3.6 nM; in assay [4] (setting [13]) it was 2.3 nM; in assay [5] (setting [9]), 11.8 nM; in assay [5] (setting [14]), 4.5 nM.
Regarding `CN(C)C(=O)c1cccc(C#Cc2cnc(Nc3ccnc(-c4cnn(S(=O)(=O)C5CC5)c4)n3)cc2N2CCC(C)(CO)CC2)n1` [Example 264, 6-((6-((2-(1-(Cyclopropylsulfonyl)-1H-pyrazol-4-yl)pyrimidin-4-yl)amino)-4-(4-(hydroxymethyl)-4-methylpiperidin-1-yl)pyridin-3-yl)ethynyl)-N,N-dimethylpicolinamide], the IC50 in assay [1] (setting [15]) was 0.3 nM; in assay [1] (setting [6]), 0.8 nM; in assay [2] (setting [16]), 9.9 nM; in assay [2] (IC50 WT (nM), 100 μM ATP), above 10000 nM; in assay [3] (setting [17]) it was 0.7 nM; in assay [3] (setting [7]) it was 0.9 nM. Besides, the IC50 worked out at 1 nM in assay [4] (setting [18]), 1.8 nM in assay [4] (setting [8]), 1.3 nM in assay [5] (setting [19]) and 14.1 nM in assay [5] (setting [9]).
With `CN1CCN(Cc2ccc(C#Cc3cnc(Nc4ccnc(-c5cnn(S(=O)(=O)C6CC6)c5)n4)cc3N3CCC4(CCO4)CC3)cc2)CC1` [Example 370, 2-(1-(Cyclopropylsulfonyl)-1H-pyrazol-4-yl)-N-(5-((4-((4-methylpiperazin-1-yl)methyl)phenyl)ethynyl)-4-(1-oxa-7-azaspiro[3.5]nonan-7-yl)pyridin-2-yl)pyrimidin-4-amine], the IC50 is 0.8 nM in assay [1] (setting [6]); 0.1 nM in assay [1] (setting [10]); above 10000 nM in assay [2] (IC50 WT (nM), 100 μM ATP); 1.9 nM in assay [2] (setting [11]); 0.3 nM in assay [3] (setting [7]); 0.3 nM in assay [3] (setting [12]). Moreover, the IC50 was 0.9 nM in assay [4] (setting [8]), 0.9 nM in assay [4] (setting [13]), 5.1 nM in assay [5] (setting [9]) and 1.4 nM in assay [5] (setting [14]).
In the case of `O=S(=O)(C1CC1)n1cc(-c2nccc(Nc3cc(N4C[C@@H]5[C@@H](CO)[C@@H]5C4)c(C#Cc4cnn(C(F)(F)F)c4)cn3)n2)cn1` [Example 331, ((1R,5S,6r)-3-(2-((2-(1-(Cyclopropylsulfonyl)-1H-pyrazol-4-yl)pyrimidin-4-yl)amino)-5-((1-(trifluoromethyl)-1H-pyrazol-4-yl)ethynyl)pyridin-4-yl)-3-azabicyclo[3.1.0]hexan-6-yl)methanol], the IC50 in assay [1] (setting [6]) was 13.9 nM; in assay [1] (setting [10]) it was 5 nM; in assay [2] (IC50 WT (nM), 100 μM ATP), above 10000 nM; in assay [2] (setting [11]) it was 309 nM; in assay [3] (setting [7]) it was 10.3 nM; in assay [3] (setting [12]) it was 6.1 nM. Moreover, the IC50 in assay [4] (setting [8]) was determined as 245 nM; in assay [4] (setting [13]), 87.5 nM; in assay [5] (setting [9]), 9130 nM; in assay [5] (setting [14]) it was 173 nM.
As to `CN(C)C[C@@H]1CCCN(c2cc(Nc3ccnc(-c4cnn(S(=O)(=O)C5CC5)c4)n3)ncc2C#Cc2cnn(C)c2)C1` [Example 384, (S)-2-(1-(Cyclopropylsulfonyl)-1H-pyrazol-4-yl)-N-(4-(3-((dimethylamino)methyl)piperidin-1-yl)-5-((1-methyl-1H-pyrazol-4-yl)ethynyl)pyridin-2-yl)pyrimidin-4-amine], the IC50 was 3.1 nM in assay [1] (setting [6]); above 10000 nM in assay [2] (IC50 WT (nM), 100 μM ATP); 1.3 nM in assay [3] (setting [7]); 10.9 nM in assay [4] (setting [8]); 49.6 nM in assay [5] (setting [9]).
Take `CC(=O)C1CCN(c2cc(Nc3ccnc(-c4cnn(S(=O)(=O)C5CC5)c4)n3)ncc2C#Cc2cnn(C(F)(F)F)c2)CC1` [Example 334, 1-(1-(2-((2-(1-(Cyclopropylsulfonyl)-1H-pyrazol-4-yl)pyrimidin-4-yl)amino)-5-((1-(trifluoromethyl)-1H-pyrazol-4-yl)ethynyl)pyridin-4-yl)piperidin-4-yl)ethan-1-one]: the IC50 is 14.8 nM in assay [1] (setting [6]); 3.3 nM in assay [1] (setting [10]); above 10000 nM in assay [2] (IC50 WT (nM), 100 μM ATP); 276 nM in assay [2] (setting [11]); 8 nM in assay [3] (setting [7]); 5.6 nM in assay [3] (setting [12]). The IC50 in assay [4] (setting [8]) was 1840 nM; in assay [4] (setting [13]) it was 239 nM; in assay [5] (setting [9]), 7530 nM; in assay [5] (setting [14]), 136 nM.
As to `CC1(CO)CCN(c2cc(Nc3ccnc(-c4cnn(S(=O)(=O)C5CC5)c4)n3)ncc2C#Cc2cnn(CC3CCOC3)c2)CC1` (centres unmarked) [Example 243, (1-(2-((2-(1-(Cyclopropylsulfonyl)-1H-pyrazol-4-yl)pyrimidin-4-yl)amino)-5-((1-((tetrahydrofuran-3-yl)methyl)-1H-pyrazol-4-yl)ethynyl)pyridin-4-yl)-4-methylpiperidin-4-yl)methanol], the IC50 was 0.4 nM in assay [1] (setting [15]); 1.8 nM in assay [1] (setting [6]); 4.7 nM in assay [2] (setting [16]); 2170 nM in assay [2] (IC50 WT (nM), 100 μM ATP); 0.9 nM in assay [3] (setting [17]); 1.4 nM in assay [3] (setting [7]). Besides, the IC50 in assay [4] (setting [18]) came to 0.8 nM; in assay [4] (setting [8]), 0.7 nM; in assay [5] (setting [19]) it was 0.9 nM; in assay [5] (setting [9]) it was 14.7 nM.
With `O=S(=O)(C1CC1)N1CCC(C#Cc2cnc(Nc3ccnc(-c4cnn(S(=O)(=O)C5CC5)c4)n3)cc2N[C@H]2CC[C@@H](CO)CC2)CC1` [Example 390, ((1s,4s)-4-((2-((2-(1-(Cyclopropylsulfonyl)-1H-pyrazol-4-yl)pyrimidin-4-yl)amino)-5-((1-(cyclopropylsulfonyl)piperidin-4-yl)ethynyl)pyridin-4-yl)amino)cyclohexyl)methanol], the IC50 is 8.3 nM in assay [1] (setting [6]); 1.1 nM in assay [1] (setting [10]); above 10000 nM in assay [2] (IC50 WT (nM), 100 μM ATP); 47.7 nM in assay [2] (setting [11]); 5.3 nM in assay [3] (setting [7]); 2.5 nM in assay [3] (setting [12]). For the same compound, the IC50 is 11.6 nM in assay [4] (setting [8]), 7.3 nM in assay [4] (setting [13]), 192 nM in assay [5] (setting [9]) and 30.1 nM in assay [5] (setting [14]).
In the case of `CN(C)CCCn1cc(C#Cc2cnc(Nc3ccnc(-c4cnn(S(=O)(=O)C5CC5)c4)n3)cc2N[C@H]2CC[C@@H](O)CC2)cn1` [Example 123, (1s,4s)-4-((2-((2-(1-(Cyclopropylsulfonyl)-1H-pyrazol-4-yl)pyrimidin-4-yl)amino)-5-((1-(3-(dimethylamino)propyl)-1H-pyrazol-4-yl)ethynyl)pyridin-4-yl)amino)cyclohexan-1-ol], the IC50 was found to be 0.4 nM in assay [1] (setting [6]); 0.1 nM in assay [1] (Km ATP, read-out: IC50 L858R/T790M/C797S (nM) Km ATP); 1080 nM in assay [2] (IC50 WT (nM), 100 μM ATP); 3.6 nM in assay [2] (Km ATP, read-out: IC50 WT (nM) Km ATP); 0.4 nM in assay [3] (setting [7]); 0.4 nM in assay [3] (Km ATP, read-out: IC50 Del19/T790M/C797S (nM) Km ATP). Besides, the IC50 in assay [4] (setting [8]) worked out at 0.6 nM; in assay [4] (Km ATP, read-out: IC50 Del19/C797S (nM) Km ATP) it was 0.3 nM; in assay [5] (setting [9]), 4.3 nM; in assay [5] (Km ATP, read-out: IC50 L858R/C797S (nM) Km ATP) it was 0.3 nM.
For the compound `CC1(CO)CCN(c2cc(Nc3ccnc(N4CCN(S(=O)(=O)C5CC5)CC4)n3)ncc2C#Cc2cnn(C(F)(F)F)c2)CC1` [Example 449, (1-(2-((2-(4-(Cyclopropylsulfonyl)piperazin-1-yl)pyrimidin-4-yl)amino)-5-((1-(trifluoromethyl)-1H-pyrazol-4-yl)ethynyl)pyridin-4-yl)-4-methylpiperidin-4-yl)methanol], the IC50 in assay [1] (setting [10]) was 51.7 nM; in assay [2] (setting [11]) it was 564 nM; in assay [3] (setting [12]), 165 nM; in assay [4] (setting [13]) it was 268 nM; in assay [5] (setting [14]) it was 69.3 nM.
